From paper PMC13538172, “Zonisamide nanodiamonds for brain targeting: A comprehensive study utilising in silico, in vitro, in vivo, and molecular investigation for successful nose-to-brain delivery for epilepsy management” (Drug Delivery and Translational Research, 2025)

Tests used:
[1] = In vitro drug release, Franz diffusion cell with dialysis bag; assay type: physicochemical; settings: PBS pH 7.4, 37 ± 0.5 °C
Experimental: The in vitro release study utilized a Franz diffusion cell with a diffusion area of 1.77 cm^2 [44]. The receptor compartment contained 7.5 ml phosphate buffer (PBS) pH 7.4, simulating the pH at the release site in the brain [45, 46], and the system was equilibrated at 37 ± 0.5 °C by a circulating water jacket. […] At certain time intervals (0, 0.25, 0.5, 0.75, 1, 2, 4, 8, 12, 24, 36, 48, and 72 h), 0.5 ml samples were aliquoted from the receptor compartment and replaced with equal volumes of fresh medium to maintain a constant volume. Samples were filtered using a 0.22 μm filter and analyzed spectrophotometrically as previously described. In order to understand the barrier presented by the dialysis membrane, the in vitro release study of unformulated ZNS (free drug) solution in distilled water of the same concentration (1mg/ml w/v) was carried out similarly in a separate setup, all release experiments were done in triplicates, and the release data were fitted to various release kinetic models: zero, first, Higuchi diffusion, and Hixson–Crowell and Korsmeyer–Peppas models.

[2] = system: neuron-specific enolase (NSE); assay: Serum NSE by ELISA in TLE rats; assay type: in vivo; settings: compared to the TLE control rats; intranasal, 7 days
Experimental: (§1) Temporal lobe epilepsy (TLE) was induced in rats using the pilocarpine model according to the method of Arshad et al.. Prior to the experiment, rats were housed in plastic cages at October University for Modern Science and Arts under controlled environmental conditions (temperatures of 25°±3°C and 50% humidity) with free access to water and softened standard pellet chow. The rats were injected with pilocarpine (300 mg/kg; i.p.) to induce status epilepticus (SE). Atropine (1 mg/kg; i.p.) was injected 30 minutes before pilocarpine injection to antagonize the peripheral muscarinic activity. SE was defined using the modified Racine scale by observing seizure severity categorized as stages 4 and 5. […] The SE seizures were left to last for 3 hours to induce hippocampus damage, after which diazepam (10 mg/kg; i.p.) was injected to attenuate the seizures. Lubricant ophthalmic gel was applied with a cotton swab to each eye to prevent the corneas from drying out during the seizures. The rats were hydrated with sterile Ringer's lactate injections (1 mL, i.p.) for 3 days post-SE induction. […]
(§2) The serum levels of neuron-specific enolase (NSE), matrix metallopeptidase-9 (MMP-9), neurofilament light polypeptide (NEFL), and brain-derived neurotrophic factor (BDNF) were measured by ELISA technique using the following standard kits CAT no. […]

[3] = system: neurofilament light polypeptide (NEFL); assay: Serum NEFL by ELISA in TLE rats; assay type: in vivo; settings: compared to the TLE control rats; intranasal, 7 days
Experimental: as §1, §2

LncRNA PVT-1 = assay: Hippocampal LncRNA PVT-1 expression by quantitative RT-PCR in TLE rats; assay type: in vivo; settings: relative quantitation 2-∆∆Ct; TLE control 5.7 folds of normal rats
Experimental: Temporal lobe epilepsy (TLE) was induced in rats using the pilocarpine model according to the method of […] et al.. Prior to the experiment, rats were housed in plastic cages at October University for Modern Science and Arts under controlled environmental conditions (temperatures of 25°±3°C and 50% humidity) with free access to water and softened standard pellet chow. The rats were injected with pilocarpine (300 mg/kg; i.p.) to induce status epilepticus (SE). Atropine (1 mg/kg; i.p.) was injected 30 minutes before pilocarpine injection to antagonize the peripheral muscarinic activity. SE was defined using the modified Racine scale by observing seizure severity categorized as stages 4 and 5. […] For quantitative RT-PCR analysis of miR-199, Sirtuin 1 (Sirt-1) and long non-coding RNA of plasmacytoma variant translocation1 (LncRNA PVT-1), RNA was isolated from the brain hippocampus tissue with direct-zol RNA Miniprep Plus (CAT no. R2072) and reverse-transcribed into cDNA with the reverse transcriptase (CAT no. 12594100) according to the manufacturer instructions. […] Quantitative reverse transcriptase PCR was performed using a Power SYBR Green PCR Master Mix (CFX96 Instrument; Bio-Rad, USA). The relative quantitation (RQ) of each target gene is quantified according to the 2-ΔΔCt method calculation.

NS(=O)(=O)Cc1noc2ccccc12 [ZNS, Zonisamide]
ZNS released in 2 hours [1]: 96.9±2.1%
decrease in serum level of NSE [2]: 30.6%
decrease in serum level of NEFL [3]: 44.6%
hippocampal level of LncRNA-PVT1 (LncRNA PVT-1): 3.4 folds
